This experiment concerns Phytophthora infestans. In kind it is in vivo. The conditions noted are these: neighbouring plot, mancozeb at 1600 g/ha.

On to mancozeb, for which the “efficacy, compared with the composition of compounds (I) and (II)” value is on record as “about one-half”.

Source of the values: patent publication US6417216B1 (priority 2000, dated 2002).
